Where two headings read alike, the source gives them in different places.
How the values were obtained:
[1] = test system: non small cell lung carcinoma H460 cells; assay: Cell growth inhibition assay (methylene blue dye), H460 cells; format: cell-based; conditions: Homo sapiens, NCI-H460, 72 h, read-out: Cell type (IC50 ± SD, nM) H460 (lung)
Procedure: (§1) Anticancer activities of the aryl substituted sulfonamide compounds synthesized in the above examples were evaluated by testing their inhibitory effects on mammalian cancer cell growth.
(§2) Human oral epidermoid carcinoma KB cells, non small cell lung carcinoma H460 cells, colorectal carcinoma HT29 cells, and stomach carcinoma MKN45 cells were maintained in RPMI-1640 medium supplied with 5% fetal bovine serum. The cells were treated with the test compound at various concentrations for 72 h.

[2] = test system: stomach carcinoma MKN45 cells; assay: Cell growth inhibition assay (methylene blue dye), MKN45 cells; format: cell-based; conditions: Homo sapiens, MKN-45, 72 h, read-out: Cell type (IC50 ± SD, nM) MKN45 (stomach)
Procedure: as §1, §2

[3] = test system: KB-VIN10 cells; assay: Cell growth inhibition assay on multidrug resistant KB-VIN10 cells; format: cell-based; conditions: Homo sapiens
Procedure: (§3) Cell in logarithmic phase were cultured at a density of 5000 cells/mL/well in a 24-well plate. KB-VIN10 cells were cultured in a medium free of test compound for 3 days prior to use. The cells were treated with the test compound at various concentrations for 72 h. The effect of the test compound on cell growth was evaluated using the methylene blue dye assay. […] KB-CPT100 and KB-CPT300 cells were generated by camptothecin-driven selection. […] (See Liou, J. P. et al J. Med. Chem. 2004, 47, 4247-4257 and Kuo, C. C. et al. Cancer Res. 2004, 64, 4621-4628.) Anticancer activities of the aryl substituted sulfonamide compounds synthesized in the above examples were evaluated by testing their inhibitory effects on these drug-resistant cell lines. Compound 24 was tested in this assay.

[4] = test system: Human oral epidermoid carcinoma KB cells; assay: Cell growth inhibition assay (methylene blue dye), KB cells; format: cell-based
Procedure: as §1, §2

[5] = test system: Human umbilical vein endothelial cells (HUVECs); assay: Cellular network (tube) formation inhibition assay; format: cell-based
Procedure: (i) Cellular Network Formation Inhibition Assay
Each well of a 96-well plate was coated with an extracellular matrix containing collagen for 1 hr to allow the gel to solidify. Human umbilical vein endothelial cells (HUVECs) suspension was prepared at a concentration of 1×10^5 cells/mL in M199 medium supplemented with endothelial cell growth supplements with 20% FBS. Then, 100 μl of the cell suspension was added to each gel-coated well of the plate. Cells were incubated with or without a test compound for 18 hrs at 37° C. Without the test compound, a cellular network structure was fully developed after 12-18 hrs of incubation. The number of tubes formed was counted using light microscopy at 200× magnification.

[6] = test system: KB-TAX50 cells; assay: Cell growth inhibition assay on drug-resistant KB-TAX50 cells; format: cell-based; conditions: Homo sapiens; KB-TAX50, Paclitaxel resistance
Procedure: as §3, with “dye assay. […] Compounds 16 and 24 were tested in this” for “dye”

[7] = test system: non-small-cell lung cancer H1299 cells; assay: Cell growth inhibition assay, H1299 cells; format: cell-based; conditions: Homo sapiens, NCI-H1299
Procedure: (§4) Human oral epidermoid carcinoma KB cells, non small cell lung carcinoma H460 cells, colorectal carcinoma HT29 cells, and stomach carcinoma MKN45 cells were maintained in RPMI-1640 medium supplied with 5% fetal bovine serum. The cells were treated with the test compound at various concentrations for 72 h. The effect of the test compound on cell growth was evaluated using a methylene blue dye assay similar to that described in Baguley et al., Anal Biochem, 1984, 139: 272-277. […] Compounds 16, 17, and 24 were tested on these three cell lines using methylene blue dye assay. ABT-751 was used as positive control (which was synthesized with the method described in Yoshino et al., J. Med. Chem. 1992, 35, 2496-2497; descriptions of ABT-751 can also be found in Koyanagi et al., Cancer Res. 1994, 54, 1702-1706; Yee et al., Cancer Res. 2005, 11, 6615-6624; and Mauer, et al., J. Thorac. Oncol. 2008, 3, 613-636).
(§5) Further, Compound 24 was tested on non-small-cell lung cancer A549 and H1299 cells, colorectal carcinoma HT29, and normal human umbilical vein endothelial cells (HUVECs).

[8] = test system: normal human umbilical vein endothelial cells (HUVECs); assay: Cell growth inhibition assay, normal HUVECs; format: cell-based; conditions: HUVEC
Procedure: as §4, §5

[9] = test system: non-small-cell lung cancer A549 cells; assay: Cell growth inhibition assay, A549 cells; format: cell-based; conditions: Homo sapiens
Procedure: as §4, §5

[10] = test system: KB-7D cells; assay: Cell growth inhibition assay on drug-resistant KB-7D cells; format: cell-based; conditions: Homo sapiens, KB7D, Etoposide resistance
Procedure: as §3, with “dye assay. […] Compounds 16 and 24 were tested in this” for “dye”

[11] = test system: CD31-positive cells in tumor tissue (microvessel density); assay: Anti-vascular activity, CD31 immunofluorescence staining in tumor tissues; format: in vivo; design: dose or concentration left out as unconfirmed; conditions: tumor tissue from mice
Procedure: Anti-vascular activities of the aryl substituted sulfonamide compounds were evaluated by immunofluorescence staining in tumor tissues.
Rat anti-mouse CD31 antibodies were purchased from BD Biosciences. Tumor tissue samples were harvested from mice in both the control and test compound-treated groups. Frozen sections were fixed with acetone and chloroform. To block nonspecific proteins, each sample was incubated in 4.5% fish gelatin (BB International Co.) for 20 min. Expression of CD31 was detected in blood vessels using rat anti-mouse CD31 as the primary antibody and TexasRed (Jackson) labeled-goat anti-rat IgG antibody as the secondary antibody. The mean microvessel density (MVD) was determined by first counting and then averaging the number of CD31-positive cells in five random high power microscopic fields from different tumor samples.

[12] = test system: KB-CPT100 cells; assay: Cell growth inhibition assay on drug-resistant KB-CPT100 cells; format: cell-based; conditions: Homo sapiens, KBCPT100; KB-CPT100, Camptothecin resistance
Procedure: as §3, with “dye assay. […] Compounds 16 and 24 were tested in this” for “dye”

[13] = test system: colorectal carcinoma HT29 cells; assay: Cell growth inhibition assay, HT29 cells; format: cell-based; conditions: Homo sapiens, HT-29
Procedure: as §4, §5

[14] = test system: VEGF165; assay: VEGF production inhibition assay (ELISA); format: cell-based; conditions: Homo sapiens, medium of the HUVEC network assay
Procedure: (ii) VEGF Production Inhibition Assay
The medium of assay (i) above was collected. VEGF165 levels were measure by ELISA. In brief, a monoclonal antibody specific for VEGF was pre-coated onto a microplate. A control cell culture medium and the medium of assay (i) were added into the wells and any VEGF present was bound to the wells by the immobilized antibody. After washing away any unbound substances, an enzyme-linked polyclonal antibody specific for VEGF was added to the wells. Following a wash to remove any unbound antibody-enzyme reagent, a substrate solution was added to the wells and color developed in proportion to the amount of VEGF bound in the initial step. The color development was stopped and the intensity of the color was measured.

[15] = test system: KB-L30 cells; assay: Cell growth inhibition assay on drug-resistant KB-L30 cells; format: cell-based; conditions: Homo sapiens; KB-L30, BPR0L075 resistance
Procedure: as §3, with “dye assay. […] Compounds 16 and 24 were tested in this” for “dye”

[16] = test system: drug-resistant cell lines (KB-VIN10, KB-TAX50, KB-7D, KB-CPT100, KB-CPT300, KB-L30); assay: Growth inhibition on the drug-resistant KB cell lines (summary over the lines); format: cell-based; conditions: Homo sapiens, summary of Table 3, read-out: IC50 values on the drug-resistant cell lines (range over lines)
Procedure: as §3, with “dye assay. […] Compounds 16 and 24 were tested in this” for “dye”

[17] = test system: KB-CPT300 cells; assay: Cell growth inhibition assay on drug-resistant KB-CPT300 cells; format: cell-based; conditions: Homo sapiens; KB-CPT300, Camptothecin resistance
Procedure: as §3, with “dye assay. […] Compounds 16 and 24 were tested in this” for “dye”

[18] = KB-VIN10 (P-gp170/MDR overexpression), 72 h, methylene blue, read-out: IC50, growth inhibition of KB-VIN10 cells
[19] = KB cells, 72 h, methylene blue dye assay, read-out: Cell type (IC50 ± SD, nM) KB (oral)
[20] = KB cells, bands, read-out: IC50, inhibiting proliferation of KB cells (band)

Structure (SMILES) | IC50 [1] | IC50 [2] | IC50 [3, 18] | IC50 [4, 19] | IC50 [4, 20] | melting point | other results
COc1ccc(S(=O)(=O)Nc2cccnc2Nc2ccc(O)cc2)cc1 [ABT-751, reference compound] | 218 ± 4 nM | 166 ± 8 nM | 385 nM | 251 ± 65 nM |  |  | 
COc1ccc(S(=O)(=O)N2CCc3cccc(-c4ccc(C#N)cc4)c32)cc1 [Compound 17, 4-[1-(4-methoxy-benzenesulfonyl)-2,3-dihydro-1H-indol-7-yl]-benzonitrile] | 29.5 ± 14.8 nM | 17.2 ± 8.6 nM |  | 31.1 ± 5.4 nM | 1 to 99 nM | 157.2 to 158.9 °C | 
COc1ccc(S(=O)(=O)N2CCc3cccc(-c4ccncc4)c32)cc1 [Compound 24, 1-(4-methoxy-benzenesulfonyl)-7-pyridin-4-yl-2,3-dihydro-1H-indole] | 101 ± 8 nM | 69.5 ± 7.6 nM | 106 nM | 96 ± 14.1 nM | 1 to 99 nM | 195.9 to 196.8 °C | IC50 ([5]; Homo sapiens, HUVEC, 18 hrs, unit inferred): 500 nM; tube formation inhibition ([5]; at 1.5 (unit not given)): completely inhibited tube formation; IC50 [6]: 188 ± 25.3 nM; IC50 [7]: 132 ± 13.7 nM; IC50 [8]: 510 ± 22.2 nM; IC50 [9]: 150 ± 8.5 nM; IC50 [10]: 257 ± 26.6 nM; decrease of vascular area compared to the blank control [11]: five-fold; IC50 [12]: 95 ± 12.1 nM; IC50 [13]: 201 ± 13.9 nM; inhibition at 0.5 µM [14]: > 50%; IC50 ([3]; KB-VIN10, Vincristine resistance, read-out: Growth Inhibition (IC50)): 106 ± 18 nM; IC50 [15]: 237 ± 26.6 nM; IC50 [16]: 90 to 250 nM; IC50 [17]: 93 ± 15.7 nM; IC50 ([4]; KB (Parental), Table 3, read-out: Growth Inhibition (IC50)): 96 ± 14.1 nM
COc1ccc(S(=O)(=O)N2CCc3cccc(-c4ccc(CN(C)C)cc4)c32)cc1 [Compound 39, {4-[1-(4-methoxy-benzenesulfonyl)-2,3-dihydro-1H-indol-7-yl]-benzyl}-dimethyl-amine] |  |  |  |  |  | 165 to 166 °C | IC50 ([4]; KB cells, bound stated, read-out: IC50, inhibiting proliferation of KB cells (bound)): ≥ 4000 nM
COc1ccc(S(=O)(=O)N2CCc3cccc(-c4ccc(C(=O)O)cc4)c32)cc1 [Compound 40, 4-[1-(4-methoxy-benzenesulfonyl)-2,3-dihydro-1H-indol-7-yl]-benzoic acid] |  |  |  |  | 100 to 700 nM | 130.3 to 132.1 °C | 
